The values below come from article PMC3469757 (Journal of medicinal chemistry, 2012).

In the first test the target is T1, human TRPV1 (Homo sapiens, UniProt Q8NER1). As to the kind of experiment: pH assay. Format: cell-based. The following applies: read-out: IC50 [pH]; hTRPV1 in CHO cells, activator pH 6.0 to 6.3.
T1 sequence (Q8NER1 whole entry): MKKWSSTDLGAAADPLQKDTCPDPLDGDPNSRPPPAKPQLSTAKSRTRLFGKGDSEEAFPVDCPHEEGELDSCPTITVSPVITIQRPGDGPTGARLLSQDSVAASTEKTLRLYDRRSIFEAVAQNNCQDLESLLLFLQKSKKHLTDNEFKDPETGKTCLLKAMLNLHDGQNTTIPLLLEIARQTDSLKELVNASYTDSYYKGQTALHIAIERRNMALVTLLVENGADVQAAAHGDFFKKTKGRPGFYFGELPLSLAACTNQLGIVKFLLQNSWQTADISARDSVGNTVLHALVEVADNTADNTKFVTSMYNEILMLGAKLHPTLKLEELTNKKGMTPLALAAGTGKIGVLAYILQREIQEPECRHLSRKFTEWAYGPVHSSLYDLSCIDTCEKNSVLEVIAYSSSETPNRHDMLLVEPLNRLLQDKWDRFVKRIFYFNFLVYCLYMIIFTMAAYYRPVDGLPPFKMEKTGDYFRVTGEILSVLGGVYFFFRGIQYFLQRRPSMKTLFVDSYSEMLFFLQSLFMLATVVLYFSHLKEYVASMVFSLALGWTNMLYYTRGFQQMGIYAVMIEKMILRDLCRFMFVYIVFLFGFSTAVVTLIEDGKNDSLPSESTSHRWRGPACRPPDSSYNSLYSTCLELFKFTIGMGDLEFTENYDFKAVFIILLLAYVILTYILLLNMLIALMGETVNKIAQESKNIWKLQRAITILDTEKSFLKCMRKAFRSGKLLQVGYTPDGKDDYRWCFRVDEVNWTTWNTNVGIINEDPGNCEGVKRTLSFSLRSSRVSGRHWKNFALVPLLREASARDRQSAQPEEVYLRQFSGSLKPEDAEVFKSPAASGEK
Consider `C[C@H](C(=O)NCc1ccc(C(F)(F)F)nc1N1CCC[C@H]1C(=O)N(C)C)c1ccc(NS(C)(=O)=O)c(F)c1` [Compound 36, (S)-1-(3-(((S)-2-(3-Fluoro-4-(methylsulfonamido)phenyl)propanamido)methyl)-6-(trifluoromethyl)pyridin-2-yl)-N,N-dimethylpyrrolidine-2-carboxamide], for which the IC50 was greater than 10 µM.

On to `CC(C(=O)NCc1ccc(C(F)(F)F)nc1N1CCS(=O)(=O)CC1)c1ccc(NS(C)(=O)=O)c(F)c1` (stereo not shown) [Compound 99, N-((2-(1,1-Dioxidothiomorpholino)-6-(trifluoromethyl)pyridin-3-yl)methyl)-2-(3-fluoro-4-(methylsulfonamido)phenyl)propanamide], for which the IC50 is greater than 10 µM.

For `C[C@H](C(=O)NCc1ccc(C(F)(F)F)nc1N1CCC[C@H]1CO)c1ccc(NS(C)(=O)=O)c(F)c1` [Compound 35, (S)-2-(3-Fluoro-4-(methylsulfonamido)phenyl)-N-((2-((S)-2-(hydroxymethyl)pyrrolidin-1-yl)-6-(trifluoromethyl)pyridin-3-yl)methyl)propanamide], the half-maximal inhibitory concentration (IC50) was greater than 10 µM.

`CC(C(=O)NCc1ccc(C(F)(F)F)nc1N1CCN(C)CC1)c1ccc(NS(C)(=O)=O)c(F)c1` (stereo not shown) [Compound 82, 2-(3-Fluoro-4-(methylsulfonamido)phenyl)-N-((2-(4-methylpiperazin-1-yl)-6-(trifluoromethyl)pyridin-3-yl)methyl)propanamide]: the IC50 was greater than 10 µM.

For `CC(C(=O)NCc1ccc(C(F)(F)F)nc1N1CCCCC1C)c1ccc(NS(C)(=O)=O)c(F)c1` (stereo not shown) [Compound 47, 2-(3-Fluoro-4-(methylsulfonamido)phenyl)-N-((2-(2-methylpiperidin-1-yl)-6-(trifluoromethyl)pyridin-3-yl)methyl)propanamide], the half-maximal inhibitory concentration (IC50) was greater than 10 µM.

For `CC(C(=O)NCc1ccc(C(F)(F)F)nc1)c1ccc(NS(C)(=O)=O)c(F)c1` (stereo not shown) [Compound 12, 2-(3-Fluoro-4-(methylsulfonamido)phenyl)-N-((6-(trifluoromethyl)pyridin-3-yl)methyl)propanamide], the IC50 was greater than 10 µM.

For the compound `CC(C(=O)NCc1ccc(C(F)(F)F)nc1N1CCC(O)CC1)c1ccc(NS(C)(=O)=O)c(F)c1` (stereo not shown) [Compound 65, 2-(3-Fluoro-4-(methylsulfonamido)phenyl)-N-((2-(4-hydroxypiperidin-1-yl)-6-(trifluoromethyl)pyridin-3-yl)methyl)propanamide], the IC50 was greater than 10 µM.

`CC(C(=O)NCc1ccc(C(F)(F)F)nc1N1CCC(N2CCCCC2)CC1)c1ccc(NS(C)(=O)=O)c(F)c1` (stereo not shown) [Compound 75, N-((2-([1,4'-Bipiperidin]-1'-yl)-6-(trifluoromethyl)pyridin-3-yl)methyl)-2-(3-fluoro-4-(methylsulfonamido)phenyl)propanamide]: the half-maximal inhibitory concentration (IC50) was greater than 10 µM.

As for `CC(C(=O)NCc1ccc(C(F)(F)F)nc1NCc1ccncc1)c1ccc(NS(C)(=O)=O)c(F)c1` (stereo not shown) [Compound 26, 2-(3-Fluoro-4-(methylsulfonamido)phenyl)-N-((2-((pyridin-4-ylmethyl)amino)-6-(trifluoromethyl)pyridin-3-yl)methyl)propanamide], the half-inhibitory concentration (IC50) is greater than 10 µM.

On to `O=C(/C=C/c1ccc(C(F)(F)F)nc1N1CCCCC1)Nc1ccc2cccnc2c1` [Compound 3, reference compound], for which the IC50 is greater than 10 µM.

On to `CC(C(=O)NCc1ccc(C(F)(F)F)nc1N1CCC(N2CCCC2)CC1)c1ccc(NS(C)(=O)=O)c(F)c1` (stereo not shown) [Compound 76, 2-(3-Fluoro-4-(methylsulfonamido)phenyl)-N-((2-(4-(pyrrolidin-1-yl)piperidin-1-yl)-6-(trifluoromethyl)pyridin-3-yl)methyl)propanamide], for which the IC50 was greater than 10 µM.

Take `CC1CCCN(c2nc(C(F)(F)F)ccc2CNC(=O)C(C)c2ccc(NS(C)(=O)=O)c(F)c2)C1` (stereo not shown) [Compound 48, 2-(3-Fluoro-4-(methylsulfonamido)phenyl)-N-((2-(3-methylpiperidin-1-yl)-6-(trifluoromethyl)pyridin-3-yl)methyl)propanamide]: the IC50 is greater than 10 µM.

As for `CC(C(=O)NCc1ccc(C(F)(F)F)nc1N1CCNCC1)c1ccc(NS(C)(=O)=O)c(F)c1` (stereo not shown) [Compound 81, 2-(3-Fluoro-4-(methylsulfonamido)phenyl)-N-((2-(piperazin-1-yl)-6-(trifluoromethyl)pyridin-3-yl)methyl)propanamide], the 50% inhibitory concentration (IC50) is greater than 10 µM.

Consider `CC(C(=O)NCc1ccc(C(F)(F)F)nc1N1CCN(c2ncccc2C(F)(F)F)CC1)c1ccc(NS(C)(=O)=O)c(F)c1` (stereo not shown) [Compound 95, 2-(3-Fluoro-4-(methylsulfonamido)phenyl)-N-((6-(trifluoromethyl)-2-(4-(3-(trifluoromethyl)pyridin-2-yl)piperazin-1-yl)pyridin-3-yl)methyl)propanamide], for which the IC50 is greater than 10 µM.

Consider `CC(C(=O)NCc1ccc(C(F)(F)F)nc1Nc1ccc(F)cc1)c1ccc(NS(C)(=O)=O)c(F)c1` (stereo not shown) [Compound 18, 2-(3-Fluoro-4-(methylsulfonamido)phenyl)-N-((2-((4-fluorophenyl)amino)-6-(trifluoromethyl)pyridin-3-yl)methyl)propanamide], for which the IC50 is greater than 10 µM.

On to `CC(C(=O)NCc1ccc(C(F)(F)F)nc1NCc1ccccn1)c1ccc(NS(C)(=O)=O)c(F)c1` (stereo not shown) [Compound 24, 2-(3-Fluoro-4-(methylsulfonamido)phenyl)-N-((2-((pyridin-2-ylmethyl)amino)-6-(trifluoromethyl)pyridin-3-yl)methyl)propanamide], for which the IC50 is greater than 10 µM.

`CC(C(=O)NCc1ccc(C(F)(F)F)nc1N1CCN(c2ccncc2)CC1)c1ccc(NS(C)(=O)=O)c(F)c1` (stereo not shown) [Compound 92, 2-(3-Fluoro-4-(methylsulfonamido)phenyl)-N-((2-(4-(pyridin-4-yl)piperazin-1-yl)-6-(trifluoromethyl)pyridin-3-yl)methyl)propanamide]: the IC50 is greater than 10 µM.

In the case of `CC(C(=O)NCc1ccc(C(F)(F)F)nc1N1CCC(=O)CC1)c1ccc(NS(C)(=O)=O)c(F)c1` (stereo not shown) [Compound 64, 2-(3-Fluoro-4-(methylsulfonamido)phenyl)-N-((2-(4-oxopiperidin-1-yl)-6-(trifluoromethyl)pyridin-3-yl)methyl)propanamide], the 50% inhibitory concentration (IC50) is greater than 10 µM.

As to `CC1CCCN1c1nc(C(F)(F)F)ccc1CNC(=O)[C@@H](C)c1ccc(NS(C)(=O)=O)c(F)c1` (stereo partly drawn) [Compound 34, (2S)-2-(3-Fluoro-4-(methylsulfonamido)phenyl)-N-((2-(2-methylpyrrolidin-1-yl)-6-(trifluoromethyl)pyridin-3-yl)methyl)propanamide], the IC50 was greater than 10 µM.

Regarding `CC(C(=O)NCc1ccc(C(F)(F)F)nc1NCc1cccnc1)c1ccc(NS(C)(=O)=O)c(F)c1` (stereo not shown) [Compound 25, 2-(3-Fluoro-4-(methylsulfonamido)phenyl)-N-((2-((pyridin-3-ylmethyl)amino)-6-(trifluoromethyl)pyridin-3-yl)methyl)propanamide], the half-inhibitory concentration (IC50) is greater than 10 µM.

In the case of `C[C@H](C(=O)NCc1ccc(C(F)(F)F)nc1N1CC[C@@H](O)C1)c1ccc(NS(C)(=O)=O)c(F)c1` [Compound 38, (S)-2-(3-Fluoro-4-(methylsulfonamido)phenyl)-N-((2-((R)-3-hydroxypyrrolidin-1-yl)-6-(trifluoromethyl)pyridin-3-yl)methyl)propanamide], the 50% inhibitory concentration (IC50) is greater than 10 µM.

With `CC(C(=O)NCc1ccc(C(F)(F)F)nc1N1CCN(C2CCCCC2)CC1)c1ccc(NS(C)(=O)=O)c(F)c1` (stereo not shown) [Compound 83, N-((2-(4-Cyclohexylpiperazin-1-yl)-6-(trifluoromethyl)pyridin-3-yl)methyl)-2-(3-fluoro-4-(methylsulfonamido)phenyl)propanamide], the IC50 was greater than 10 µM.

Turning to `CC(C)OC1CCN(c2nc(C(F)(F)F)ccc2CNC(=O)C(C)c2ccc(NS(C)(=O)=O)c(F)c2)CC1` (stereo not shown) [Compound 70, 2-(3-Fluoro-4-(methylsulfonamido)phenyl)-N-((2-(4-isopropoxypiperidin-1-yl)-6-(trifluoromethyl)pyridin-3-yl)methyl)propanamide], the half-inhibitory concentration (IC50) was greater than 10 µM.

For `CC(C)(C)c1ccc(CNC(=S)NCc2ccc(NS(C)(=O)=O)c(F)c2)cc1` [Compound 1, reference compound], the IC50 was greater than 10 µM.

The next test addresses T1, human TRPV1. As to the kind of experiment: Capsaicin assay. Format: cell-based. The following applies: hTRPV1 in CHO cells.
Consider `CC(C(=O)NCc1ccc(C(F)(F)F)nc1N1CCS(=O)(=O)CC1)c1ccc(NS(C)(=O)=O)c(F)c1` (stereo not shown) [Compound 99, N-((2-(1,1-Dioxidothiomorpholino)-6-(trifluoromethyl)pyridin-3-yl)methyl)-2-(3-fluoro-4-(methylsulfonamido)phenyl)propanamide], for which the “hTRPV1 antagonism in words” value is “only weak potency”.

With `CC(C(=O)NCc1ccc(C(F)(F)F)nc1)c1ccc(NS(C)(=O)=O)c(F)c1` (stereo not shown) [Compound 12, 2-(3-Fluoro-4-(methylsulfonamido)phenyl)-N-((6-(trifluoromethyl)pyridin-3-yl)methyl)propanamide], the “hTRPV1 antagonism in words” value is listed as “weak antagonist”.

With `CC(C(=O)NCc1ccc(C(F)(F)F)nc1Nc1ccc(Cl)cc1)c1ccc(NS(C)(=O)=O)c(F)c1` (stereo not shown) [Compound 19, N-((2-((4-Chlorophenyl)amino)-6-(trifluoromethyl)pyridin-3-yl)methyl)-2-(3-fluoro-4-(methylsulfonamido)phenyl)propanamide], the “hTRPV1 antagonism in words” value was “devoid of activity”.

`CC(C(=O)NCc1ccc(C(F)(F)F)nc1N1CCNCC1)c1ccc(NS(C)(=O)=O)c(F)c1` (stereo not shown) [Compound 81, 2-(3-Fluoro-4-(methylsulfonamido)phenyl)-N-((2-(piperazin-1-yl)-6-(trifluoromethyl)pyridin-3-yl)methyl)propanamide]: the “hTRPV1 antagonism in words” value is “weak antagonist”.

Still in this test, the particulars now being: hTRPV1 in CHO cells, versus compound 2.
`CC(C(=O)NCc1ccc(C(F)(F)F)nc1N1CCCCC1)c1ccc(NS(C)(=O)=O)c(F)c1` (stereo not shown) [Compound 45, 2-(3-Fluoro-4-(methylsulfonamido)phenyl)-N-((2-(piperidin-1-yl)-6-(trifluoromethyl)pyridin-3-yl)methyl)propanamide]: the “fold more potent than parent 2 for capsaicin antagonism” value is recorded as 46 fold.

For `CC(C(=O)NCc1ccc(C(F)(F)F)nc1N1CCOCC1)c1ccc(NS(C)(=O)=O)c(F)c1` (stereo not shown) [Compound 97, 2-(3-Fluoro-4-(methylsulfonamido)phenyl)-N-((2-morpholino-6-(trifluoromethyl)pyridin-3-yl)methyl)propanamide], the “fold more potent than parent 2 for capsaicin antagonism” value worked out at 15 fold.

The same test, now with this note: hTRPV1 in CHO cells, versus compound 3.
`C[C@H](C(=O)NCc1ccc(C(F)(F)F)nc1N1CCCCC1)c1ccc(NS(C)(=O)=O)c(F)c1` [Compound 45S, (S)-2-(3-Fluoro-4-(methylsulfonamido)phenyl)-N-((2-(piperidin-1-yl)-6-(trifluoromethyl)pyridin-3-yl)methyl)propanamide]: the “fold more potent than lead 3 for capsaicin antagonism” value is reported as “ca. 15 fold”.
